Data reported in patent US9370547B2, “Compositions and methods for treating ischemia” (UNIVERSITY OF KENTUCKY RESEARCH FOUNDATION, priority 2014, dated 2016).

Tests used:
[1] = tested on: claudin-5 expression in mouse brain endothelial cells; test: Claudin-5 western blot and immunocytochemistry in brain endothelial cells after OGD; type: cell-based
Description: FIG. 11A includes a claudin-5 western blot of brain endothelial cells after OGD that were treated as labeled.
FIG. 11B includes plot showing the quantification of claudin-5 expression normalized to Ponceau S total protein stain for the samples show in FIG. 11A.
FIG. 11C includes images showing claudin-5 immunocytochemistry of WT mouse brain endothelial cells either just prior to (control) or 24 hours after OGD treated as labeled. Scale bar is 5 μm.

WT mice after MCAo = details: mouse, in vivo
[2] = cited from earlier work

## Ac-PhScN—NH2
[1]
  claudin-5 levels compared with ATN-161 and normoxic control: more effective than ATN-161

## Ac-PHSCN-NH2 [ATN-161]
WT mice after MCAo
  animal vital signs upon administration: did not alter animal vital signs
  tolerability (signs of illness such as fur ruffling, weight differences): well tolerated
[2]; for some subjects
  serum half-life: 3 to 5 h
[2]; in vivo
  tissue distribution: high tissue distribution
[2]; intravenous
  safety of intravenous administration: can be safely administered intravenously
